The text below walks through data of patent publication US20070060533A1, “Novel inhibitor of the formation of advanced glycation end product and aldose reductase inhibitor” (Meiji Seika Kaisha Ltd., priority 2003, published 2007).

For one assay, the target named is T1, aldose reductase (Rattus norvegicus, UniProt P07943).
T1 construct: the supernatant was used as a crude enzyme solution; from tissue; host or cells: lenses of Wistar male rats
The assay can be described thus: Aldose-reductase-inhibiting activity test (rat lens crude enzyme). To be noted: DL glycerylaldehyde substrate, pH 7.0, 30° C. Format: biochemical, Wistar male rats. Here is the method:
The test was conducted by a partially modified version of the method of Dufrane et al (Dufrane S. P. et al., Biochem. Med., 32, 99-105 (1984)). Specifically, the lenses of Wistar male rats were homogenized with 10 mmol/L 2-mercapto ethanol. The resultant was centrifuged, and then the supernatant was used as a crude enzyme solution. Each test substance was dissolved in DMSO and then added to a 180 mmol/L phosphate buffer (pH 7.0). 100 mmol/L lithium sulfate and 0.03 mmol/L NADPH were further added to the solution to initiate a reaction at 30° C. using 1 mmol/L DL glycerylaldehyde as a substrate. 0.5 mol/L HCl was added to stop the reaction. 6 mol/L sodium hydroxide containing 10 mmol/L imidazole was added to the solution. The solution was heated for 20 minutes at 60° C. to convert NADP to a fluorescent substance. The thus generated fluorescent substance was subjected to measurement using a fluorospectrophotometer. 50% inhibition concentration (IC50) was calculated using the thus obtained value.
(§1) The test substances used herein were the anthocyanin-containing composition prepared in Example 1 and 4 types of crystalline anthocyanin prepared in Example 2.

The next assay deals with AGE formation. The assay can be described thus: AGE formation suppression test (glucose + bovine serum albumin, fluorescence). The format is biochemical. To be noted: 67 mmol/L phosphate buffer pH 7.2, 60° C., 48 hours. Here is the method:
The test was conducted by a partially modified version of the method of Morimitu et al (Morimitu. Y. et. al., Biosci. Biotech. Biochem., 59, 2018-2021 (1995)). Specifically, glucose, each test substance dissolved in DMSO, and bovine serum albumin were incubated in a 67 mmol/L phosphate buffer (pH 7.2) at 60° C. for 48 hours. AGE was thus sufficiently formed by incubation. The amount of formed AGE was discovered by dilution of the reaction solution followed by measurement using a fluorospectrophotometer. The 50% inhibition concentration (IC50) was calculated using the thus obtained value. The lower the IC50, the higher the AGE-inhibiting activity. This indicates the usefulness of a substance as an inhibitor.
as §1

Usually IC50 stands for the concentration needed to halve the response being measured.

Regarding `C[C@@H]1O[C@@H](OC[C@H]2O[C@@H](Oc3c(-c4ccc(O)c(O)c4)oc4cc(O)cc(O)c4c3=O)[C@H](O)[C@@H](O)[C@@H]2O)[C@H](O)[C@H](O)[C@H]1O` [Rutin, rutin, reference compound], the IC50 at aldose reductase was found to be 9 µM.

For `CC1OC(OCC2OC(Oc3cc4c(O)cc(O)cc4[o+]c3-c3cc(O)c(O)c(O)c3)C(O)C(O)C2O)C(O)C(O)C1O` (stereo not shown) [Example 2 (D3R), delphinidin-3-O-rutinoside], the IC50 with AGE formation was 163 µM; against aldose reductase it was 15.2 µM.

For `N=C(N)NN` [Aminoguanidine, aminoguanidine, reference compound], the IC50 in the assay on AGE formation came to 1200 µM.

Turning to `OCC1OC(Oc2cc3c(O)cc(O)cc3[o+]c2-c2cc(O)c(O)c(O)c2)C(O)C(O)C1O` (stereo not shown) [Example 2 (D3G), delphinidin-3-O-glucoside], the IC50 in the assay on AGE formation worked out at 99 µM; against aldose reductase, 12.5 µM.

For `CC1OC(OCC2OC(Oc3cc4c(O)cc(O)cc4[o+]c3-c3ccc(O)c(O)c3)C(O)C(O)C2O)C(O)C(O)C1O` (stereo not shown) [Example 2 (C3R), cyanidin-3-O-rutinoside], the values for the IC50 with AGE formation and at aldose reductase were 154 µM and 2.5 µM, respectively.

Consider `OCC1OC(Oc2cc3c(O)cc(O)cc3[o+]c2-c2ccc(O)c(O)c2)C(O)C(O)C1O` (stereo not shown) [Example 2 (C3G), cyanidin-3-O-glucoside], for which the concentration for half-maximal inhibition (IC50) was found to be 132 µM with AGE formation and 4.7 µM at aldose reductase.
